Starred links: 1 amine or outer side, 2 acyl side, 3 side chain; linkers in the order of their positions; H or OH if unused. Non-standard residues stand in square brackets, D forms with d. Residues, ends and D or L forms follow the SMILES beside them. Groups on a side chain read outwards from the residue. *: point of attachment. C20 diacid = O=C(O)CCCCCCCCCCCCCCCCCCC(=O)*; C18 diacid = O=C(O)CCCCCCCCCCCCCCCCC(=O)*; γGlu = O=C(O)[C@H](CCC(=O)[*:2])N[*:1]; Aib = CC(C)(N)C(=O)O
Assay: PK measurements for half life assessment in pigs
Format: in vivo, pig
Settings: male, large white, pig, plasma, sc, single subcutaneous injection, time from tmax to half of Cmax, typically mean of four animals
Method: Male large white pigs receive a single subcutaneous injection of the test compound at the start of study (0 hours). Repeated blood samples were taken from the pig over the proceeding 168 hours and plasma separated and stored at −20 to −80° C. Plasma concentration of the test compound was quantified using a radioimmunoassay or mass spectrum analysis. Time taken from tmax to half of Cmax was calculated and represents the half-life (t½) of the compound. Typically, the presented t½ is the mean of four separate animals.

| SMILES | half-life [h] |
| --- | --- |
| CC[C@H](C)[C@H](NC(=O)[C@H](Cc1ccccc1)NC(=O)[C@H](CCC(=O)O)NC(=O)[C@H](CCC(N)=O)NC(=O)[C@H](C)NC(=O)[C@H](CCCNC(=N)N)NC(=O)[C@H](CCCCN)NC(=O)[C@H](C)NC(=O)[C@H](CC(=O)O)NC(=O)[C@H](CC(C)C)NC(=O)[C@H](Cc1ccc(O)cc1)NC(=O)[C@H](CCCCN)NC(=O)[C@H](CO)NC(=O)[C@H](Cc1ccc(O)cc1)NC(=O)[C@H](CC(=O)O)NC(=O)[C@H](CO)NC(=O)[C@@H](NC(=O)[C@H](Cc1ccccc1)NC(=O)[C@@H](NC(=O)CNC(=O)[C@H](Cc1c[nH]cn1)NC(=O)C(C)(C)NC(=O)[C@@H](N)Cc1c[nH]cn1)[C@@H](C)O)[C@@H](C)O)C(=O)N[C@@H](CCC(=O)O)C(=O)N[C@@H](Cc1c[nH]c2ccccc12)C(=O)N[C@@H](CC(C)C)C(=O)N[C@@H](CC(C)C)C(=O)N[C@@H](CCC(N)=O)C(=O)N[C@@H](CO)C(=O)N[C@@H](Cc1c[nH]cn1)C(=O)N[C@@H](Cc1c[nH]cn1)C(=O)N[C@@H](CCC(N)=O)C(=O)N[C@@H](CCC(N)=O)C(=O)N[C@@H](Cc1c[nH]cn1)C(=O)N[C@@H](CCC(=O)O)C(=O)N[C@@H](CO)C(=O)N1CCC[C@H]1C(=O)N1CCC[C@H]1C(=O)N1CCC[C@H]1C(=O)N[C@@H](CCCCNC(=O)[C@H](Cc1c[nH]cn1)NC(=O)[C@H](CC(N)=O)NC(=O)CC[C@H](NC(=O)CCCCCCCCCCCCCCCCC(=O)O)C(=O)O)C(=O)O [Example 649] (H-H[Aib]HGTFTSDYSKYLDAKRAQEFIEWLLQSHHQQHESPPPK([His-Asn-γGlu-C18 diacid])-OH) | 84 |
| CC[C@H](C)[C@H](NC(=O)[C@H](Cc1ccccc1)NC(=O)[C@H](CCC(=O)O)NC(=O)[C@H](Cc1c[nH]cn1)NC(=O)[C@H](C)NC(=O)[C@H](CCCNC(=N)N)NC(=O)[C@H](CCCCN)NC(=O)[C@H](C)NC(=O)[C@H](CC(=O)O)NC(=O)[C@H](CC(C)C)NC(=O)[C@H](Cc1ccc(O)cc1)NC(=O)[C@H](CCCCN)NC(=O)[C@H](CO)NC(=O)[C@H](Cc1ccc(O)cc1)NC(=O)[C@H](CC(=O)O)NC(=O)[C@H](CO)NC(=O)[C@@H](NC(=O)[C@H](Cc1ccccc1)NC(=O)[C@@H](NC(=O)CNC(=O)[C@H](Cc1c[nH]cn1)NC(=O)C(C)(C)NC(=O)[C@@H](N)Cc1c[nH]cn1)[C@@H](C)O)[C@@H](C)O)C(=O)N[C@@H](CCC(=O)O)C(=O)N[C@@H](Cc1c[nH]c2ccccc12)C(=O)N[C@@H](CC(C)C)C(=O)N[C@@H](CC(C)C)C(=O)N[C@@H](CCC(N)=O)C(=O)N[C@@H](CO)C(=O)N[C@@H](Cc1c[nH]cn1)C(=O)N[C@@H](CCC(N)=O)C(=O)N[C@@H](CCC(N)=O)C(=O)N[C@@H](Cc1c[nH]cn1)C(=O)N[C@@H](CCC(=O)O)C(=O)N[C@@H](CO)C(=O)N1CCC[C@H]1C(=O)N1CCC[C@H]1C(=O)N1CCC[C@H]1C(=O)NCC(=O)N[C@@H](CCCCNC(=O)[C@H](CC(N)=O)NC(=O)CC[C@H](NC(=O)CCCCCCCCCCCCCCCCCCC(=O)O)C(=O)O)C(=O)O [Example 652] (H-H[Aib]HGTFTSDYSKYLDAKRAHEFIEWLLQSHQQHESPPPGK([Asn-γGlu-C20 diacid])-OH) | 116 |
| CC[C@H](C)[C@H](NC(=O)[C@H](Cc1ccccc1)NC(=O)[C@H](CCC(=O)O)NC(=O)[C@H](CCCNC(=N)N)NC(=O)[C@H](C)NC(=O)[C@H](CCCNC(=N)N)NC(=O)[C@H](CCCCN)NC(=O)[C@H](C)NC(=O)[C@H](CC(=O)O)NC(=O)[C@H](CC(C)C)NC(=O)[C@H](Cc1ccc(O)cc1)NC(=O)[C@H](CCCCN)NC(=O)[C@H](CO)NC(=O)[C@H](Cc1ccc(O)cc1)NC(=O)[C@H](CC(=O)O)NC(=O)[C@H](CO)NC(=O)[C@@H](NC(=O)[C@H](Cc1ccccc1)NC(=O)[C@@H](NC(=O)CNC(=O)[C@H](Cc1c[nH]cn1)NC(=O)C(C)(C)NC(=O)[C@@H](N)Cc1c[nH]cn1)[C@@H](C)O)[C@@H](C)O)C(=O)N[C@@H](CCC(=O)O)C(=O)N[C@@H](Cc1c[nH]c2ccccc12)C(=O)N[C@@H](CC(C)C)C(=O)N[C@@H](CC(C)C)C(=O)N[C@@H](CCC(N)=O)C(=O)N[C@@H](CO)C(=O)N[C@@H](Cc1c[nH]cn1)C(=O)N[C@@H](CCC(N)=O)C(=O)N[C@@H](CCC(N)=O)C(=O)N[C@@H](Cc1c[nH]cn1)C(=O)N[C@@H](CCC(=O)O)C(=O)N[C@@H](CO)C(=O)N1CCC[C@H]1C(=O)N1CCC[C@H]1C(=O)N1CCC[C@H]1C(=O)NCC(=O)N[C@@H](CCCCNC(=O)[C@H](CC(N)=O)NC(=O)CC[C@H](NC(=O)CCCCCCCCCCCCCCCCCCC(=O)O)C(=O)O)C(=O)O [Example 704] (H-H[Aib]HGTFTSDYSKYLDAKRAREFIEWLLQSHQQHESPPPGK([Asn-γGlu-C20 diacid])-OH) | 96 |

Next, values leading:

| half-life [h] | SMILES |
| --- | --- |
| 84 | CC[C@H](C)[C@H](NC(=O)[C@H](Cc1ccccc1)NC(=O)[C@H](CCC(=O)O)NC(=O)[C@H](CCCNC(=N)N)NC(=O)[C@H](C)NC(=O)[C@H](CCCNC(=N)N)NC(=O)[C@H](CCCCN)NC(=O)[C@H](C)NC(=O)[C@H](CC(=O)O)NC(=O)[C@H](CC(C)C)NC(=O)[C@H](Cc1ccc(O)cc1)NC(=O)[C@H](CCCCN)NC(=O)[C@H](CO)NC(=O)[C@H](Cc1ccc(O)cc1)NC(=O)[C@H](CC(=O)O)NC(=O)[C@H](CO)NC(=O)[C@@H](NC(=O)[C@H](Cc1ccccc1)NC(=O)[C@@H](NC(=O)CNC(=O)[C@H](Cc1c[nH]cn1)NC(=O)C(C)(C)NC(=O)[C@@H](N)Cc1c[nH]cn1)[C@@H](C)O)[C@@H](C)O)C(=O)N[C@@H](CCC(=O)O)C(=O)N[C@@H](Cc1c[nH]c2ccccc12)C(=O)N[C@@H](CC(C)C)C(=O)N[C@@H](CC(C)C)C(=O)N[C@@H](CCC(N)=O)C(=O)N[C@@H](CO)C(=O)N[C@@H](Cc1c[nH]cn1)C(=O)N[C@@H](CCC(N)=O)C(=O)N[C@@H](CCC(N)=O)C(=O)N[C@@H](Cc1c[nH]cn1)C(=O)N1CCC[C@H]1C(=O)N[C@@H](CO)C(=O)N1CCC[C@H]1C(=O)N1CCC[C@H]1C(=O)N1CCC[C@H]1C(=O)NCC(=O)N[C@@H](CCCCNC(=O)[C@H](CC(N)=O)NC(=O)CC[C@H](NC(=O)CCCCCCCCCCCCCCCCCCC(=O)O)C(=O)O)C(=O)O [Example 705] (H-H[Aib]HGTFTSDYSKYLDAKRAREFIEWLLQSHQQHPSPPPGK([Asn-γGlu-C20 diacid])-OH) |
| 110 | CC[C@H](C)[C@H](NC(=O)[C@H](Cc1ccccc1)NC(=O)[C@H](CCC(=O)O)NC(=O)[C@H](CCC(N)=O)NC(=O)[C@H](C)NC(=O)[C@H](CCCNC(=N)N)NC(=O)[C@H](CCCCN)NC(=O)[C@H](C)NC(=O)[C@H](CC(=O)O)NC(=O)[C@H](CC(C)C)NC(=O)[C@H](Cc1ccc(O)cc1)NC(=O)[C@H](CCCCN)NC(=O)[C@H](CO)NC(=O)[C@H](Cc1ccc(O)cc1)NC(=O)[C@H](CC(=O)O)NC(=O)[C@H](CO)NC(=O)[C@@H](NC(=O)[C@H](Cc1ccccc1)NC(=O)[C@@H](NC(=O)CNC(=O)[C@H](Cc1c[nH]cn1)NC(=O)C(C)(C)NC(=O)[C@@H](N)Cc1c[nH]cn1)[C@@H](C)O)[C@@H](C)O)C(=O)N[C@@H](CCC(=O)O)C(=O)N[C@@H](Cc1c[nH]c2ccccc12)C(=O)N[C@@H](CC(C)C)C(=O)N[C@@H](CC(C)C)C(=O)N[C@@H](CCC(N)=O)C(=O)N[C@@H](CO)C(=O)N[C@@H](Cc1c[nH]cn1)C(=O)N[C@@H](CCC(N)=O)C(=O)N[C@@H](CCC(N)=O)C(=O)N[C@@H](Cc1c[nH]cn1)C(=O)N1CCC[C@H]1C(=O)N[C@@H](CO)C(=O)N1CCC[C@H]1C(=O)N1CCC[C@H]1C(=O)N1CCC[C@H]1C(=O)NCC(=O)N[C@@H](CCCCNC(=O)[C@H](CC(N)=O)NC(=O)CC[C@H](NC(=O)CCCCCCCCCCCCCCCCCCC(=O)O)C(=O)O)C(=O)O [Example 706] (H-H[Aib]HGTFTSDYSKYLDAKRAQEFIEWLLQSHQQHPSPPPGK([Asn-γGlu-C20 diacid])-OH) |

From patent US12516095B2, “Peptide hormone analogues” (IP2IPO INNOVATIONS LIMITED, priority 2019, dated 2026)
